Here are results for five compounds from US7923464B2, “Benzimidazole derivatives and their use for modulating the GABAA receptor complex” (Neurosearch A/S, priority 2005, dated 2011).

The target of the test is benzodiazepine modulatory unit (GABAA receptor complex), labelled with 3H-flunitrazepam. The experiment in a line: In vitro inhibition of 3H-flunitrazepam (3H-FNM) binding. Conditions: cerebral cortex membranes from male Wistar rats; 3H-FNM 1 nM; 40 min at 2° C. Also noted: species or system rat. Here is the method:
In Vitro Inhibition of ^3H-flunitrazepam (^3H-FNM) Binding
The GABA recognition site and the benzodiazepine modulatory unit can selectively be labelled with ^3H-flunitrazepam.
Preparations are performed at 0-4° C. unless otherwise indicated. Cerebral cortex from male Wistar rats (150-200 g) is homogenised for 5-10 sec in 20 ml Tris-HCl (30 mM, pH 7.4) using an Ultra-Turrax homogeniser. The suspension is centrifuged at 27,000×g for 15 min and the pellet is washed three times with buffer (centrifuged at 27,000×g for 10 min). The washed pellet is homogenized in 20 ml of buffer and incubated on a water bath (37° C.) for 30 min to remove endogenous GABA and then centrifuged for 10 min at 27,000×g. The pellet is then homogenized in buffer and centrifuged for 10 min at 27,000×g. The final pellet is resuspended in 30 ml buffer and the preparation is frozen and stored at −20° C.
The membrane preparation is thawed and centrifuged at 2° C. for 10 min at 27,000×g. The pellet is washed twice with 20 ml 50 mM Tris-citrate, pH 7.1 using an Ultra-Turrax homogeniser and centrifuged for 10 min at 27,000×g. The final pellet is resuspended in 50 mM Tris-citrate, pH 7.1 (500 ml buffer per g of original tissue), and then used for binding assays. Aliquots of 0.5 ml tissue are added to 25 μl of test solution and 25 μl of ^3H-FNM (1 nM, final concentration), mixed and incubated for 40 min at 2° C. Non-specific binding is determined using Clonazepam (1 μM, final concentration). After incubation the samples are added 5 ml of ice-cold buffer and poured directly onto Whatman GF/C glass fibre filters under suction and immediately washed with 5 ml ice-cold buffer. The amount of radioactivity on the filters is determined by conventional liquid scintillation counting. Specific binding is total binding minus non-specific binding.
Co is specific binding in control assays, and
Cx is the specific binding in the test assay.
(The calculations assume normal mass-action kinetics).
For `CC(N)c1ccc2c(c1)ncn2-c1cccc(-c2ccccc2)c1` (centres unmarked) [Compound 3a, 1-(1-Biphenyl-3-yl-1H-benzoimidazol-5-yl)-ethylamine], the IC50 amounted to 73 nM.

Compound `COc1ccccc1-c1cccc(-n2cnc3cc([C@@H](C)NC(C)=O)ccc32)c1` [Compound 12b, N-{(R)-1-[1-(2′-Methoxy-biphenyl-3-yl)-1H-benzoimidazol-5-yl]-ethyl}-acetamide] displayed an IC50 of 60 nM.

The compound `COc1ccccc1-c1cccc(-n2cnc3cc([C@H](C)NC(C)=O)ccc32)c1` [Compound 12g, N-{(S)-1-[1-(2′-Methoxy-biphenyl-3-yl)-1H-benzoimidazol-5-yl]-ethyl}-acetamide] registered an IC50 of 2.6 nM.

In the case of `COc1ccccc1-c1cccc(-n2cnc3cc([C@@H](C)N)ccc32)c1` [Compound 12o, (R)-1-[1-(2′-Methoxy-biphenyl-3-yl)-1H-benzoimidazol-5-yl]-ethylamine], the IC50 stood at 6.7 nM.

`C[C@@H](N)c1ccc2c(c1)ncn2-c1cccc(-c2ccccc2C#N)c1` [Compound 12r, 3′-[5-((R)-1-Amino-ethyl)-benzoimidazol-1-yl]-biphenyl-2-carbonitrile] displayed an IC50 of 3.7 nM.

For orientation: IC50 means the concentration that gives 50% inhibition.
